{"source": "patent US9963455B2", "about": "“Pyrazolo[1,5-a]pyrimidines as antiviral compounds” (Curovir AB, priority 2014, dated 2018)", "type_in_all_cases": "cell-based", "key": {"[1]": {"system": "encephalomyocarditis virus", "assay": "CPE inhibition in mammalian cell culture, EMCV", "set-up": "inhibition: dose or concentration left out as unconfirmed", "conditions": "Cardiovirus A; for inhibition at 100 µM: Conc. 0.1 mM"}, "[2]": {"system": "coxsackie B virus strain 5", "assay": "CPE inhibition in mammalian cell culture, Cox-B5", "set-up": "inhibition: dose or concentration left out as unconfirmed", "conditions": "read-out: antiviral effect, B5"}, "[3]": {"system": "coxsackie B virus strain 2", "assay": "CPE inhibition in mammalian cell culture, Cox-B2", "set-up": "inhibition: dose or concentration left out as unconfirmed", "conditions": "read-out: antiviral effect, B2"}, "[4]": {"system": "polio virus strain 1", "assay": "microbe, parasite or virus in culture", "set-up": "inhibition: dose or concentration left out as unconfirmed", "conditions": "read-out: antiviral effect, Polio 1"}, "[5]": {"system": "Ljungan virus strain 012", "assay": "CPE inhibition in mammalian cell culture, LV012", "conditions": "Parechovirus B, read-out: antiviral effect, LV012; for inhibition at 100 µM: Conc. 0.1 mM; for inhibition at 5 µM: Conc. 5 µM"}, "[6]": {"system": "Ljungan virus strain 145", "assay": "CPE inhibition in mammalian cell culture, LV145", "set-up": "inhibition: dose or concentration left out as unconfirmed", "conditions": "Parechovirus B; for inhibition at 100 µM: Conc. 0.1 mM"}, "[7]": {"system": "coxsackie B virus strain 1", "assay": "CPE inhibition in mammalian cell culture, Cox-B1", "set-up": "inhibition: dose or concentration left out as unconfirmed"}, "[8]": {"system": "coxsackie B virus strain 3", "assay": "CPE inhibition in mammalian cell culture, Cox-B3", "set-up": "inhibition: dose or concentration left out as unconfirmed", "conditions": "for inhibition / inhibition at 5000 µM: read-out: antiviral effect, B3"}, "[9]": {"system": "Enterovirus strain 30", "assay": "CPE inhibition in mammalian cell culture, EV30", "set-up": "inhibition: dose or concentration left out as unconfirmed", "conditions": "for inhibition at 5 µM: Conc. 5 µM"}, "[10]": {"system": "Human parechovirus strain 1", "assay": "CPE inhibition in mammalian cell culture, HPeV-1", "conditions": "Parechovirus A, read-out: antiviral effect, HPeV-1; for inhibition at 5 µM: Conc. 5 µM"}, "[11]": {"system": "Enterovirus strain 6", "assay": "microbe, parasite or virus in culture", "set-up": "inhibition: dose or concentration left out as unconfirmed", "conditions": "for inhibition: Conc., read-out: antiviral effect, EV6"}, "[12]": {"system": "coxsackie B virus strain 4", "assay": "CPE inhibition in mammalian cell culture, Cox-B4"}, "[13]": {"system": "Enterovirus strain 71", "assay": "CPE inhibition in mammalian cell culture, EV71", "set-up": "inhibition: dose or concentration left out as unconfirmed", "conditions": "read-out: antiviral effect, EV71"}, "[14]": {"conditions": "read-out: antiviral effect, EMCV"}, "[15]": {"conditions": "read-out: antiviral effect, LV145"}, "[16]": {"conditions": "read-out: antiviral effect, EV30"}}}
{"smiles": "COc1ccc(-c2c(C)nn3c(NCc4ccc(C)nc4)cc(C)nc23)cc1OC", "note": "[Ex. 92, 3-(3,4-dimethoxyphenyl)-2,5-dimethyl-N-[(6-methyl-3-pyridyl)methyl]pyrazolo[1,5-a]pyrimidin-7-amine]", "values": [{"measurement": "inhibition at 100 µM", "setting": "[1]; [14]", "value": 0, "unit": "%"}, {"measurement": "inhibition", "setting": "[2]", "value": 95, "unit": "%"}, {"measurement": "inhibition", "setting": "[3]", "value": 96, "unit": "%"}, {"measurement": "inhibition", "setting": "[4]", "value": 98, "unit": "%"}, {"measurement": "inhibition at 100 µM", "setting": "[5]", "value": 0, "unit": "%"}, {"measurement": "inhibition at 100 µM", "setting": "[6]; [15]", "value": 0, "unit": "%"}, {"measurement": "inhibition", "setting": "[7]; read-out: antiviral effect, B1", "value": 100, "unit": "%"}, {"measurement": "inhibition at 0.01 µM", "setting": "[8]; read-out: % inh.", "value": 100, "unit": "%"}, {"measurement": "inhibition", "setting": "[8]", "value": 100, "unit": "%"}, {"measurement": "inhibition", "setting": "[9]; [16]", "value": 100, "unit": "%"}]}
{"smiles": "COc1ccc(-c2c(C)nn3c(NCc4ccc(Cl)cc4)cc(C)nc23)cc1OC", "note": "[Ex. 1, N-[(4-chlorophenyl)methyl]-3-(3,4-dimethoxyphenyl)-2,5-dimethyl-pyrazolo[1,5-a]pyrimidin-7-amine]", "values": [{"measurement": "inhibition at 5000 µM", "setting": "[2]", "value": 90, "unit": "%"}, {"measurement": "inhibition at 5000 µM", "setting": "[3]", "value": 60, "unit": "%"}, {"measurement": "inhibition at 5000 µM", "setting": "[4]", "value": 31, "unit": "%"}, {"measurement": "inhibition at 5 µM", "setting": "[10]", "value": 14, "unit": "%"}, {"measurement": "inhibition at 5 µM", "setting": "[5]", "value": 34, "unit": "%"}, {"measurement": "inhibition", "setting": "[11]", "value": 90, "unit": "%"}, {"measurement": "inhibition at 0.25 µM", "setting": "[11]; read-out: % inh.", "value": 75, "unit": "%"}, {"measurement": "inhibition at 5000 µM", "setting": "[7]; read-out: antiviral effect, B1", "value": 93, "unit": "%"}, {"measurement": "inhibition at 5000 µM", "setting": "[8]", "value": 95, "unit": "%"}, {"measurement": "inhibition at 5000 µM", "setting": "[12]; read-out: antiviral effect, B4", "value": 86, "unit": "%"}, {"measurement": "inhibition at 5 µM", "setting": "[9]; [16]", "value": 100, "unit": "%"}]}
{"smiles": "Cc1ccc(-c2c(C)nn3c(NCc4ccccn4)cc(C)nc23)cc1", "note": "[Ex. 33, 2,5-dimethyl-3-(p-tolyl)-N-(2-pyridylmethyl)pyrazolo[1,5-a]pyrimidin-7-amine]", "values": [{"measurement": "inhibition", "setting": "[1]; Conc., read-out: antiviral effect, EMCV", "value": 60, "unit": "%"}, {"measurement": "inhibition at 10000 µM", "setting": "[2]", "value": 92, "unit": "%"}, {"measurement": "inhibition at 10000 µM", "setting": "[3]", "value": 81, "unit": "%"}, {"measurement": "inhibition at 10000 µM", "setting": "[4]", "value": 58, "unit": "%"}, {"measurement": "inhibition at 10 µM", "setting": "[10]; Conc. 10 µM", "value": 13, "unit": "%"}, {"measurement": "inhibition", "setting": "[6]; Conc., read-out: antiviral effect, LV145", "value": 69, "unit": "%"}, {"measurement": "inhibition at 10 µM", "setting": "[9]; Conc. 10 µM, read-out: antiviral effect, EV30", "value": 85, "unit": "%"}, {"measurement": "inhibition at 1 µM", "setting": "[9]; EV30, Conc. 1.0 μM, read-out: % inh.", "value": 48, "unit": "%"}, {"measurement": "inhibition", "setting": "[13]; Conc.", "value": 0, "unit": "%"}]}
{"smiles": "COc1ccc(-c2c(C)nn3c(NCc4ccc(C(C)=O)cc4)cc(C)nc23)cc1OC", "note": "[Ex. 94, 1-[4-[[[3-(3,4-dimethoxyphenyl)-2,5-dimethyl-pyrazolo[1,5-a]pyrimidin-7-yl]amino]methyl]phenyl]ethanone]", "values": [{"measurement": "inhibition at 100 µM", "setting": "[1]; [14]", "value": 0, "unit": "%"}, {"measurement": "inhibition", "setting": "[2]", "value": 56, "unit": "%"}, {"measurement": "inhibition", "setting": "[3]", "value": 100, "unit": "%"}, {"measurement": "inhibition", "setting": "[4]", "value": 100, "unit": "%"}, {"measurement": "inhibition at 100 µM", "setting": "[5]", "value": 12, "unit": "%"}, {"measurement": "inhibition at 100 µM", "setting": "[6]; [15]", "value": 0, "unit": "%"}, {"measurement": "inhibition at 0.01 µM", "setting": "[7]; read-out: % inh.", "value": 100, "unit": "%"}, {"measurement": "inhibition", "setting": "[7]; read-out: antiviral effect, B1", "value": 100, "unit": "%"}, {"measurement": "inhibition", "setting": "[8]", "value": 100, "unit": "%"}, {"measurement": "inhibition at 100 µM", "setting": "[9]; Conc. 0.1 mM, read-out: antiviral effect, EV30", "value": 96, "unit": "%"}, {"measurement": "inhibition at 100 µM", "setting": "[13]; Conc. 0.1 mM", "value": 100, "unit": "%"}]}
{"smiles": "COc1ccc(-c2c(C)nn3c(NC4CCCC4)cc(C)nc23)cc1OC", "note": "[Ex. 41, N-cyclopentyl-3-(3,4-dimethoxyphenyl)-2,5-dimethyl-pyrazolo[1,5-a]pyrimidin-7-amine]", "values": [{"measurement": "inhibition at 10 µM", "setting": "[1]; EMCV, Conc. 10.0 μM", "value": 93, "unit": "%"}]}
{"smiles": "COc1ccc(-c2c(C)nn3c(NCCCc4ccccc4)cc(C)nc23)cc1OC", "note": "[Ex. 7, 3-(3,4-dimethoxyphenyl)-2,5-dimethyl-N-(3-phenylpropyl)pyrazolo[1,5-a]pyrimidin-7-amine]", "values": [{"measurement": "inhibition at 2500 µM", "setting": "[2]", "value": 68, "unit": "%"}, {"measurement": "inhibition at 2500 µM", "setting": "[3]", "value": 92, "unit": "%"}, {"measurement": "inhibition at 2500 µM", "setting": "[4]", "value": 80, "unit": "%"}, {"measurement": "inhibition at 2.5 µM", "setting": "[10]; Conc. 2.5 µM", "value": 6, "unit": "%"}, {"measurement": "inhibition at 2.5 µM", "setting": "[5]; Conc. 2.5 µM", "value": 14, "unit": "%"}, {"measurement": "inhibition at 2.5 µM", "setting": "[6]; LV145, Conc. 2.5 μM", "value": 54, "unit": "%"}, {"measurement": "inhibition at 2500 µM", "setting": "[7]; read-out: antiviral effect, B1", "value": 77, "unit": "%"}, {"measurement": "inhibition at 2500 µM", "setting": "[12]; read-out: antiviral effect, B4", "value": 82, "unit": "%"}, {"measurement": "inhibition at 2.5 µM", "setting": "[9]; Conc. 2.5 µM, read-out: antiviral effect, EV30", "value": 89, "unit": "%"}]}
{"smiles": "COc1ccc(-c2c(C)nn3c(Nc4ccc(C(F)(F)F)cc4)cc(C)nc23)cc1OC", "note": "[Ex. 73, 3-(3,4-dimethoxyphenyl)-2,5-dimethyl-N-[4-(trifluoromethyl)phenyl]pyrazolo[1,5-a]pyrimidin-7-amine]", "values": [{"measurement": "inhibition at 0.1 µM", "setting": "[12]; read-out: % inh.", "value": 44, "unit": "%"}]}
{"smiles": "COc1ccc(CNc2cc(C)nc3c(-c4ccc(OC)c(OC)c4)c(C)nn23)cc1", "note": "[Ex. 2, 3-(3,4-dimethoxyphenyl)-N-[(4-methoxyphenyl)methyl]-2,5-dimethyl-pyrazolo[1,5-a]pyrimidin-7-amine]", "values": [{"measurement": "inhibition at 5000 µM", "setting": "[2]", "value": 91, "unit": "%"}, {"measurement": "inhibition at 5000 µM", "setting": "[3]", "value": 93, "unit": "%"}, {"measurement": "inhibition at 5000 µM", "setting": "[4]", "value": 90, "unit": "%"}, {"measurement": "inhibition at 5 µM", "setting": "[10]", "value": 0, "unit": "%"}, {"measurement": "inhibition at 5 µM", "setting": "[5]", "value": 49, "unit": "%"}, {"measurement": "inhibition", "setting": "[11]", "value": 83, "unit": "%"}, {"measurement": "inhibition at 5000 µM", "setting": "[7]; read-out: antiviral effect, B1", "value": 91, "unit": "%"}, {"measurement": "inhibition at 5000 µM", "setting": "[8]", "value": 97, "unit": "%"}, {"measurement": "inhibition at 5000 µM", "setting": "[12]; read-out: antiviral effect, B4", "value": 86, "unit": "%"}, {"measurement": "inhibition at 5 µM", "setting": "[9]; [16]", "value": 91, "unit": "%"}, {"measurement": "inhibition at 0.25 µM", "setting": "[9]; EV30, Conc. 0.25 μM", "value": 85, "unit": "%"}]}
